From PubChem BioAssay AID1996
Converted amounts (≈) assume the structure as drawn.

Details: buffer; pH 7.4; 200.0 µM

Row | Compound | solubility kinetic [µg/mL]
1 | Cc1cccc(/N=C/C2=C(O)CC(C)(C)CC2=O)n1 | > 38.7
2 | CCc1ccc2oc(-c3ccc(NC(C)=O)cc3)nc2c1 | 0.8 (≈ 2.85 µM)
3 | Nc1cc(N)nc(SCC(=O)Nc2ccc3c(c2)OCO3)n1 | 47.2 (≈ 148 µM)
4 | O=C(COC(=O)COc1ccccc1F)NCc1ccco1 | > 46.1
5 | CC1CCC(NC(=O)COC(=O)c2cccnc2Cl)CC1 (stereo not given) | > 46.6
6 | O=C(CN1C(=O)C(=O)N(C2CCCC2)C1=O)NCCc1ccc(F)cc1 | > 54.2
7 | O=C(c1ccccc1)c1nc2c(n1O)CCCCC2 | > 38.4
8 | O=C(O)c1cccc(Cl)n1 | > 23.6
9 | Cc1ccc2c(C(=O)CN3CCCCC3)c(C)[nH]c2c1 | > 40.6
10 | CN(C)c1ccc(/C=C/c2cccc[n+]2[O-])cc1 | > 36
11 | COC(=O)c1ccc(OCC(=O)NCCC2=CCCCC2)c(OC)c1 | > 52.1
12 | CC1=C(C)CC(C(=O)NCc2cccc(Cl)c2)C(C(=O)O)C1 (stereo not given) | > 48.3
13 | O=C(CSc1ccccc1F)Nc1ccc2c(c1)OCO2 | 45.4 (≈ 149 µM)
14 | CC(=O)Nc1ccc(S(=O)(=O)NCCN2CCNC2=O)cc1Cl | > 54.1
15 | Cc1cccc([N+](=O)[O-])c1NC(=O)COC(=O)C1CCCO1 (stereo not given) | > 46.2
16 | O=C(/C=C/c1cccs1)c1ccc(N2CCOCC2)cc1 | 4.8 (≈ 16 µM)
17 | O=C(O)CCC(=O)Nc1ccc(Br)cc1C(=O)c1ccccc1Cl | > 61.6
18 | Cc1cc(C)c(C(=O)N2CCCC(Nc3ccc(F)cc3)C2)o1 (stereo not given) | > 47.5
19 | Nc1c(N(Cc2ccccc2)C(=O)COc2ccc(F)cc2Cl)c(=O)[nH]c(=O)n1Cc1ccccc1 | 9.4 (≈ 18.5 µM)
20 | COc1ccc(NC(=O)CC(=O)Nc2ccc(OC)cc2)cc1 | 1.2 (≈ 3.82 µM)
21 | Cc1noc(C)c1C(=O)OCC(=O)N(C)C1(C#N)CCCCC1 | > 47.9
22 | CCOc1ccccc1N=Cc1c(O)n(C)c(=O)n(C)c1=O | 1.1 (≈ 3.63 µM)

Row | Compound | solubility kinetic [µg/mL]
23 | O=C(COC(=O)c1ccco1)NCc1ccc(Cl)cc1 | 16.4 (≈ 55.8 µM)
24 | O=C1C=C(N2CCCCCC2)C2(CCCCC2)O1 | 37.1 (≈ 149 µM)
25 | COc1ccc(NC(=O)CCc2nc3ccccc3[nH]2)cc1 | 5.3 (≈ 17.9 µM)
26 | CC1C(=O)NC(=O)C1c1ccccc1 (stereo not given) | > 28.4
27 | COc1ccc(C(=O)N/C(=C\c2ccco2)C(=O)OCc2ccco2)cc1 | > 55.1
28 | CCCCN(C(=O)Nc1ccccc1)C1CCS(=O)(=O)C1 (stereo not given) | > 46.6
29 | COC(=O)/C=C1\SC(=NC(=O)c2ccc(-c3ccccc3)cc2)NC1=O | 2.6 (≈ 7.1 µM)
30 | O=C(O)CC[C@@H](C(=O)O)N1C(=O)c2ccccc2C1=O | > 41.6
31 | CCOc1ccc(/C=C2\SC(=O)N(c3ccc(O)cc3)C2=O)cc1OC | < 0.8
32 | C=CCc1c(C)[nH]c(=O)[nH]c1=O | > 24.9
33 | CCC1CCC(N2CCN(c3ccc(F)cc3)CC2)CC1 (stereo not given) | 24.1 (≈ 83 µM)
34 | COc1ccc2c(CC(=O)Nc3ccccc3OC)coc2c1 | 31.4 (≈ 101 µM)
35 | Cc1cccc(/C=C/c2onc(C)c2[N+](=O)[O-])n1 | 2.8 (≈ 11.4 µM)
36 | COc1ccc(CC2SC(N)=NC2=O)cc1 (stereo not given) | > 35.4
37 | CC(=O)c1c(-c2ccc(Cl)cc2)c2ccccc2[nH]c1=O | 0.9 (≈ 3.02 µM)
38 | COc1ccc(CCNCc2ccccc2)cc1.O=C(O)C(=O)O | > 49.7
39 | NC(=O)COc1ccc2oc(=O)cc(-c3cc4ccccc4o3)c2c1 | 1 (≈ 2.98 µM)
40 | C=C(C)C1CC=C(CN2CCN(Cc3ccccc3)CC2)CC1 (stereo not given) | 17.8 (≈ 57.3 µM)
41 | COc1ccc(CCC(C)N2CCc3ccccc3C2)cc1 (stereo not given) | 39.1 (≈ 132 µM)
42 | COc1ccccc1C(NC(C)=O)c1c(O)ccc2ccc(O)cc12 (stereo not given) | > 50.6
43 | COc1cc(CC(=O)OCC(=O)NC2CCCCCC2)cc(OC)c1OC | > 56.9
44 | CCc1cccc(CC)c1NC(=O)C1CCN(C(=O)c2ccco2)CC1 | 51.2 (≈ 144 µM)

Row | Compound | solubility kinetic [µg/mL]
45 | COc1ccc(CNC(=O)CNC(=O)c2ccc(Br)o2)cc1OC | 53.1 (≈ 134 µM)
46 | COc1ccc(/C=C2\SC(N)=NC2=O)cc1 | 3.9 (≈ 16.6 µM)
47 | Cc1n(Cc2ccccc2)c2ccccc2[n+]1Cc1ccccc1.[Cl-] | 51.9
48 | Cc1ccc(NC(=O)c2cccnc2)cc1S(=O)(=O)N(C)C | > 47.9
49 | O=C(Nc1ccc(CN2CCCCC2)cc1)c1cccc(F)c1 | 44.7 (≈ 143 µM)
50 | Nc1nc(Nc2ccccc2)nc(NCCO)c1[N+](=O)[O-] | 38 (≈ 131 µM)
51 | CCOP(=O)(OCC)C(Nc1cccc([N+](=O)[O-])c1)c1ccccc1 (stereo not given) | 7.8 (≈ 21.4 µM)
52 | COc1ccc(O)c(/C=C(\C#N)C(=O)Nc2ccccn2)c1 | 22.8 (≈ 77.2 µM)
53 | COc1cccc(-c2noc(CCC(=O)NC3CCCC3)n2)c1 | > 47.3
54 | COc1cccc2[nH]c3c(=O)n(CCCN4CCOCC4)cnc3c12 | > 51.4
55 | Cc1cc(-c2ccccc2C(=O)NC2CCCCC2)on1 | 31.8 (≈ 112 µM)
56 | COc1ccc(NC(=O)NC2(C(=O)N3CCCC3)CCCCC2)cc1 | 24 (≈ 69.5 µM)
57 | CCS(=O)(=O)N1CCC(C(=O)NCc2ccc3c(c2)OCO3)CC1 | > 53.2
58 | COc1ccc2c(c1)c(C(C)=O)c(C)n2Cc1ccco1 | 36.7 (≈ 130 µM)
59 | Cc1ccc(SCCSc2ncccn2)cc1 | 1.7 (≈ 6.48 µM)
60 | Cc1cc(C(C)(C)C)cc(S(=O)(=O)Nc2ccc(C(=O)O)cc2)c1C | 40.8 (≈ 113 µM)
61 | COc1cc(-c2ccc(NC(C)=O)c(OC)c2)ccc1NC(C)=O | 10.1 (≈ 30.8 µM)
62 | CCOc1ccccc1Nc1nnc(SCC(=O)NC2CCS(=O)(=O)C2)s1 (stereo not given) | > 64.3
63 | O=C(O)Cc1ccc(S(=O)(=O)Nc2ccccc2C(=O)O)cc1 | 43.4 (≈ 129 µM)
64 | Cc1cc(C(=O)Nc2ccccc2C(=O)O)c(C)o1 | > 38.9
65 | Cc1cc(C)c(C#N)c(SCc2ccc([N+](=O)[O-])cc2)n1 | < 0.2
66 | COc1ccccc1CNC(=O)C(CCSC)NC(=O)c1cccc(S(=O)(=O)N2CCOCC2)c1 (stereo not given) | 3.4 (≈ 6.52 µM)

Row | Compound | solubility kinetic [µg/mL]
67 | CCCCn1c(O)c(C(=O)/C=C/c2ccc3c(c2)OCO3)c(=O)[nH]c1=O | > 53.8
68 | Cc1ccc(S(=O)(=O)Nc2nc(C)c(C(=O)NN)s2)cc1 | > 49
69 | Cc1ccc(C)c(NC(=O)C2COc3ccccc3O2)c1 (stereo not given) | 3.5 (≈ 12.4 µM)
70 | CCc1ccc(C(=O)Nc2nc3ccccc3[nH]2)cc1 | 0.5 (≈ 1.88 µM)
71 | CC1SCC(=NOCc2c(Cl)cccc2Cl)CS1 (stereo not given) | < 0.7
72 | O=c1c2[nH]c3ccc(F)cc3c2ncn1CCC1=CCCCC1 | < 0.2
73 | Cc1cccc(NC(=S)NCc2ccc(F)cc2)c1C | 35.2 (≈ 122 µM)
74 | Cc1cc(-c2ccc([N+](=O)[O-])cc2)nc2ccccc12.Cl | 1
75 | Br.N#Cc1ccc(CSC2=NCCN2)cc1 | > 44.7
76 | CN1CCN(CC(=O)N2c3ccccc3Sc3ccccc32)CC1 | > 50.9
77 | O=C1CNC(=S)N1C(CO)c1ccccc1 (stereo not given) | > 35.4
78 | CCN(CC(=O)Nc1ccc(C(=O)OC)cc1)C1CCCCC1 | 43.3 (≈ 136 µM)
79 | CC(=O)N1CCN(CC(=O)Nc2ccc(C)c(F)c2)CC1.Cl | 46.8
80 | CCCNS(=O)(=O)c1ccc(OCC(=O)NCC2CCCO2)cc1 (stereo not given) | 51.2 (≈ 144 µM)
81 | CCc1ccc2nc(SCC(=O)NCC3CCCO3)c(C#N)cc2c1 (stereo not given) | 1.9 (≈ 5.35 µM)
82 | CN(C)C(=O)c1cc(C(=O)c2ccc(F)cc2F)c[nH]1 | > 41.7
83 | COc1ccc(NC(=O)c2cc(C)n(Cc3cccs3)c2C)cc1 | 1.3 (≈ 3.82 µM)
84 | Cc1cc2oc(=O)cc(CN(C)Cc3ccccc3Cl)c2cc1C | < 0.7
85 | O=C(NC1CCCc2ccccc21)c1ccc(F)cc1F (stereo not given) | 10.9 (≈ 37.9 µM)
